PMC12305494, “Discovery of PXR Antagonist MI891 and PXR Degrader MI1013 and Their Roles in Hepatic Gene Regulation” (Journal of Medicinal Chemistry, 2025)

What was measured:
Assay in all cases: Off-target kinase panel
Format in all cases: biochemical
Settings in all cases: MI891 @ 1 µM
LOK(h) = molecular target: T1, LOK(h) (Homo sapiens, UniProt O94804)
T1 construct: purchased Eurofins (Millipore) KinaseProfiler, inferred from the naming style
Procedure: (§1) To evaluate the selectivity of MI891, an off-target profiling study was performed using a panel of 58 kinases.

PRAK(h) = molecular target: T2, PRAK(h) (Homo sapiens, UniProt Q8IW41)
T2 construct: purchased Eurofins (Millipore) KinaseProfiler, inferred from the naming style
Procedure: as §1

p70S6K(h) = molecular target: T3, p70S6K(h) (Homo sapiens, UniProt P23443)
T3 construct: purchased Eurofins (Millipore) KinaseProfiler, inferred from the naming style
Procedure: as §1

Rse(h) = molecular target: T4, Rse(h) (Homo sapiens, UniProt Q06418)
T4 construct: purchased Eurofins (Millipore) KinaseProfiler, inferred from the naming style
Procedure: as §1

MST1(h) = molecular target: T5, MST1(h) (Homo sapiens, UniProt Q13043)
T5 construct: purchased Eurofins (Millipore) KinaseProfiler, inferred from the naming style
Procedure: as §1

ALK(h) = ALK(h) (Homo sapiens, UniProt Q9UM73)
Procedure: as §1

CDK2/cyclinA(h) = CDK2/cyclinA(h) (Homo sapiens, UniProt P24941)
Procedure: as §1

KDR(h) = molecular target: T6, KDR(h) (Homo sapiens, UniProt P35968)
T6 construct: purchased Eurofins (Millipore) KinaseProfiler, inferred from the naming style
Procedure: as §1

TAK1(h) = molecular target: T7, TAK1(h) (Homo sapiens, UniProt O43318)
T7 construct: purchased Eurofins (Millipore) KinaseProfiler, inferred from the naming style
T7 sequence (O43318 1-303 limits assumed): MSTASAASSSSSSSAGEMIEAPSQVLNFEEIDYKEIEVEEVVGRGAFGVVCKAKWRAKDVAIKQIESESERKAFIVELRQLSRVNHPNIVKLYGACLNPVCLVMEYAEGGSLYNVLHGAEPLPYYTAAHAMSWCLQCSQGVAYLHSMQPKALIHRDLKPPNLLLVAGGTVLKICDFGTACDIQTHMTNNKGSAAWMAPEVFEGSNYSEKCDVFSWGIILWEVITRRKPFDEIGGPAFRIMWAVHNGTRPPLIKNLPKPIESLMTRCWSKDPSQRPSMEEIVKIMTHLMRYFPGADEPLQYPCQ
Procedure: as §1

MEK1(h) = molecular target: T8, MEK1(h) (Homo sapiens, UniProt Q02750)
T8 construct: purchased Eurofins (Millipore) KinaseProfiler, inferred from the naming style
Procedure: as §1

MAPKAP-K2(h) = molecular target: T9, MAPKAP-K2(h) (Homo sapiens, UniProt P49137)
T9 construct: purchased Eurofins (Millipore) KinaseProfiler, inferred from the naming style
Procedure: as §1

[1] = molecular target: T10, PI3 Kinase (p110a/p85a)(h) (Homo sapiens, UniProt P42336)
T10 construct: purchased Eurofins (Millipore) KinaseProfiler, inferred from the naming style
Procedure: as §1

Lyn(h) = molecular target: T11, Lyn(h) (Homo sapiens, UniProt P07948)
T11 construct: purchased Eurofins (Millipore) KinaseProfiler, inferred from the naming style
T11 sequence (P07948 whole entry): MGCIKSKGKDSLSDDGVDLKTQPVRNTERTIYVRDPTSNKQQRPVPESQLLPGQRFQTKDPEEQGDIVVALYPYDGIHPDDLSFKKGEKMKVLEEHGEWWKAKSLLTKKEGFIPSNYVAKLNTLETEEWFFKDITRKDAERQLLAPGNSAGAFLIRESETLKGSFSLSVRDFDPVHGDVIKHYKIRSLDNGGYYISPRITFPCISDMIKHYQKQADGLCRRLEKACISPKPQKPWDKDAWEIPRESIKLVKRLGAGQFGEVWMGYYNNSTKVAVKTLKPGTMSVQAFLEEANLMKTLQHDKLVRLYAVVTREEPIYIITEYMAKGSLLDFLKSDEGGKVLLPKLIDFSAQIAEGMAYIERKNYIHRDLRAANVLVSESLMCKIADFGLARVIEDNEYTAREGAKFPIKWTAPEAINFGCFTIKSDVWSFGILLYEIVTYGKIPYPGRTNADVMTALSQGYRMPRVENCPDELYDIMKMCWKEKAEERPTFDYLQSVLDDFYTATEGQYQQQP
Procedure: as §1

CDK1/cyclinB(h) = CDK1/cyclinB(h) (Homo sapiens, UniProt P06493)
Sequence of CDK1/cyclinB(h) (P06493 whole entry): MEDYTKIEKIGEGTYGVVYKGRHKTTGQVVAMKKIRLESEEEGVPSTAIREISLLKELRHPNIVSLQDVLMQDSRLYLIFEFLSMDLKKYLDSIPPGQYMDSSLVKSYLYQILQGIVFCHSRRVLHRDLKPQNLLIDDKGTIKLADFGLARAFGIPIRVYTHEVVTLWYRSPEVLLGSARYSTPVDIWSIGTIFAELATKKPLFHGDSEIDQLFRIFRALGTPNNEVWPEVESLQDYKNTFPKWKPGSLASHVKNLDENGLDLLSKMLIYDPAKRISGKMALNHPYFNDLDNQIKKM
Sequence of CDK1/cyclinB(h) (P14635 whole entry partner): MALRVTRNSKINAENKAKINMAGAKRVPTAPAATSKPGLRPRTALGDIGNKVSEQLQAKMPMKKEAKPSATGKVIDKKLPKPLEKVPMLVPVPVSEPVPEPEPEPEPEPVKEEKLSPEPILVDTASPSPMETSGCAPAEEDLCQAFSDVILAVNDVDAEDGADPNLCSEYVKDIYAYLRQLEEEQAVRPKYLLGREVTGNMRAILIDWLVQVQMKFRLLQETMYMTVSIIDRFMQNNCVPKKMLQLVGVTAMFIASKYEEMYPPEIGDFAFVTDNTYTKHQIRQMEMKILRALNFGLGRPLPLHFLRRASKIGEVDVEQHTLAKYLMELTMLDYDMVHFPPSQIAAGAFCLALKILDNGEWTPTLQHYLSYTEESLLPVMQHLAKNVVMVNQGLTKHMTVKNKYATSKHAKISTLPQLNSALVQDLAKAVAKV
Procedure: as §1

ROCK-I(h) = molecular target: T12, ROCK-I(h) (Homo sapiens, UniProt Q13464)
T12 construct: purchased Eurofins (Millipore) KinaseProfiler, inferred from the naming style
Procedure: as §1

CHK1(h) = CHK1(h) (Homo sapiens, UniProt O14757)
Sequence of CHK1(h) (O14757 whole entry): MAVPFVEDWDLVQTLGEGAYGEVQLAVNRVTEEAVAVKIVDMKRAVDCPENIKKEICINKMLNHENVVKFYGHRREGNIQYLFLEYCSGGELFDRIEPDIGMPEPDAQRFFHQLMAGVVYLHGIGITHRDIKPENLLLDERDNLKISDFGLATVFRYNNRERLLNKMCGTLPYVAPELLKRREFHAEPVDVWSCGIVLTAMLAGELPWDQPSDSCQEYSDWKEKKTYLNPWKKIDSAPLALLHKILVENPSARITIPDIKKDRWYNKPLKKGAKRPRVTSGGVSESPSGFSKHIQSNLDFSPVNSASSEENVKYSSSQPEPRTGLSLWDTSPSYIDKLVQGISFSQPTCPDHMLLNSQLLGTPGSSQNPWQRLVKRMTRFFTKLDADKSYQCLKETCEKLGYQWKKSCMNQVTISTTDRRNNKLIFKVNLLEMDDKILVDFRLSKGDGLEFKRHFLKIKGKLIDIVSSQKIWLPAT
Procedure: as §1

EphA5(h) = EphA5(h) (Homo sapiens, UniProt P54756)
Procedure: as §1

CDK6/cyclinD3(h) = CDK6/cyclinD3(h) (Homo sapiens, UniProt Q00534)
Procedure: as §1

PKCθ(h) = molecular target: T13, PKCθ(h) (Homo sapiens, UniProt Q04759)
T13 construct: purchased Eurofins (Millipore) KinaseProfiler, inferred from the naming style
Procedure: as §1

ASK1(h) = ASK1(h) (Homo sapiens, UniProt Q99683)
Procedure: as §1

IRAK4(h) = molecular target: T14, IRAK4(h) (Homo sapiens, UniProt Q9NWZ3)
T14 construct: purchased Eurofins (Millipore) KinaseProfiler, inferred from the naming style
Procedure: as §1

IGF-1R(h) = IGF-1R(h) (Homo sapiens, UniProt P08069)
Procedure: as §1

Aurora-A(h) = Aurora-A(h) (Homo sapiens, UniProt O14965)
Sequence of Aurora-A(h) (O14965 whole entry): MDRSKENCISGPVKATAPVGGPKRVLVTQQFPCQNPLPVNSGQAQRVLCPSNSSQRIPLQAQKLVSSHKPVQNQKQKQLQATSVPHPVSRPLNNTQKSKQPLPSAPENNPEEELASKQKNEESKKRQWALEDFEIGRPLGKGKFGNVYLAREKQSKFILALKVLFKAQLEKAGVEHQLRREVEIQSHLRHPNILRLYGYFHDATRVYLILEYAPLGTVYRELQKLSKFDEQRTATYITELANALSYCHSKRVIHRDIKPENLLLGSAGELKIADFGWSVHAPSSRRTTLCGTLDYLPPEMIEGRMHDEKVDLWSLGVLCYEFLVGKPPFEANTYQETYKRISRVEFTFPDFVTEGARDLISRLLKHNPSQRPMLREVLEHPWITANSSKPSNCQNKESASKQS
Procedure: as §1

eEF-2K(h) = eEF-2K(h) (Homo sapiens, UniProt O00418)
Procedure: as §1

Rsk1(h) = molecular target: T15, Rsk1(h) (Homo sapiens, UniProt Q15418)
T15 construct: purchased Eurofins (Millipore) KinaseProfiler, inferred from the naming style
Procedure: as §1

[2] = molecular target: T16, PI3 Kinase (p110b/p85a)(h) (Homo sapiens, UniProt P42338)
T16 construct: purchased Eurofins (Millipore) KinaseProfiler, inferred from the naming style
Procedure: as §1

EphB4(h) = EphB4(h) (Homo sapiens, UniProt P54760)
Sequence of EphB4(h) (P54760 16-987): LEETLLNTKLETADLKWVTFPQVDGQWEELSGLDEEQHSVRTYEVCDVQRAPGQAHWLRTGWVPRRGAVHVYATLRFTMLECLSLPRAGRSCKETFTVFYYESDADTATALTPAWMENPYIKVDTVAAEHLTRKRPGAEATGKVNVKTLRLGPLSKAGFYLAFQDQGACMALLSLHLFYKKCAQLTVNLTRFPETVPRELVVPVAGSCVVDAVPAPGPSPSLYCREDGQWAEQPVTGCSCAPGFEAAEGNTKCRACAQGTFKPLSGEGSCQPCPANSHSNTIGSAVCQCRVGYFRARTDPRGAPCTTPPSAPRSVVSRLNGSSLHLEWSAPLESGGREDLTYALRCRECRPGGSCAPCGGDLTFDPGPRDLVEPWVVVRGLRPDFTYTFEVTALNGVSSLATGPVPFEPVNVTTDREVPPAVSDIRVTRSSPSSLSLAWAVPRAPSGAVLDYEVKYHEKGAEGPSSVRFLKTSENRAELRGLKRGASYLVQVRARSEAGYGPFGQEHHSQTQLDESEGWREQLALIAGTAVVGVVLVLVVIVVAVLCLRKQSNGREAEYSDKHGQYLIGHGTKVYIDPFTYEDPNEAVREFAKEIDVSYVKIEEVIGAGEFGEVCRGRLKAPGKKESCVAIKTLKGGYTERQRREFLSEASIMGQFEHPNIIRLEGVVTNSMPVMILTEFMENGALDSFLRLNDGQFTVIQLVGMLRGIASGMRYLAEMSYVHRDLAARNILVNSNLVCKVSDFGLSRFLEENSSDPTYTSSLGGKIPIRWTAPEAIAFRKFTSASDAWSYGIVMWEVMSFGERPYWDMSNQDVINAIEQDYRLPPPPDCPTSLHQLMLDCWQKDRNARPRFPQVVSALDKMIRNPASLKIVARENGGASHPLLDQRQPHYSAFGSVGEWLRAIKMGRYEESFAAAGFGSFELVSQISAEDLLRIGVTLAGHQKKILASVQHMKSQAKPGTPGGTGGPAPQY
Procedure: as §1

NEK2(h) = molecular target: T17, NEK2(h) (Homo sapiens, UniProt P51955)
T17 construct: purchased Eurofins (Millipore) KinaseProfiler, inferred from the naming style
Procedure: as §1

CaMKI(h) = CaMKI(h) (Homo sapiens, UniProt Q14012)
Procedure: as §1

mTOR(h) = molecular target: T18, mTOR(h) (Homo sapiens, UniProt P42345)
T18 construct: purchased Eurofins (Millipore) KinaseProfiler, inferred from the naming style
Procedure: as §1

PKG1α(h) = molecular target: T19, PKG1α(h) (Homo sapiens, UniProt Q13976)
T19 construct: purchased Eurofins (Millipore) KinaseProfiler, inferred from the naming style
Procedure: as §1

IKKα(h) = IKKα(h) (Homo sapiens, UniProt O15111)
Procedure: as §1

Mnk2(h) = molecular target: T20, Mnk2(h) (Homo sapiens, UniProt Q9HBH9)
T20 construct: purchased Eurofins (Millipore) KinaseProfiler, inferred from the naming style
Procedure: as §1

AMPKα1(h) = AMPKα1(h) (Homo sapiens, UniProt Q13131)
Procedure: as §1

GSK3β(h) = GSK3β(h) (Homo sapiens, UniProt P49841)
Procedure: as §1

Plk3(h) = molecular target: T21, Plk3(h) (Homo sapiens, UniProt Q9H4B4)
T21 construct: purchased Eurofins (Millipore) KinaseProfiler, inferred from the naming style
Procedure: as §1

PKBα(h) = molecular target: T22, PKBα(h) (Homo sapiens, UniProt P31749)
T22 construct: purchased Eurofins (Millipore) KinaseProfiler, inferred from the naming style
T22 sequence (P31749 whole entry): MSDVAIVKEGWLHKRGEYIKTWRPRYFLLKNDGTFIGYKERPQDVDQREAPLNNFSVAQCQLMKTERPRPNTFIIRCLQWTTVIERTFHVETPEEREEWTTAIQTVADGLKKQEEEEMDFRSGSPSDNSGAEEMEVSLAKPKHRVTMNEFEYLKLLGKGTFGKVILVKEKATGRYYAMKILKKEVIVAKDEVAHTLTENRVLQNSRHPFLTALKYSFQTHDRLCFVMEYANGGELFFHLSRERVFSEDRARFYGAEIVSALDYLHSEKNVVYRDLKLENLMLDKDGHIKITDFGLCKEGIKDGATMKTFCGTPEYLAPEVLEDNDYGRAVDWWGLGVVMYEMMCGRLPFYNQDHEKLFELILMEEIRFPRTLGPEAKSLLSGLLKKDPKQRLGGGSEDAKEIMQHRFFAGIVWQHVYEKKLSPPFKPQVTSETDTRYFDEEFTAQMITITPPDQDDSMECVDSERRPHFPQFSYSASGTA
Procedure: as §1

PI3 Kinase (p120g)(h) = molecular target: T23, PI3 Kinase (p120g)(h) (Homo sapiens, UniProt P48736)
T23 construct: purchased Eurofins (Millipore) KinaseProfiler, inferred from the naming style
T23 sequence (P48736 whole entry): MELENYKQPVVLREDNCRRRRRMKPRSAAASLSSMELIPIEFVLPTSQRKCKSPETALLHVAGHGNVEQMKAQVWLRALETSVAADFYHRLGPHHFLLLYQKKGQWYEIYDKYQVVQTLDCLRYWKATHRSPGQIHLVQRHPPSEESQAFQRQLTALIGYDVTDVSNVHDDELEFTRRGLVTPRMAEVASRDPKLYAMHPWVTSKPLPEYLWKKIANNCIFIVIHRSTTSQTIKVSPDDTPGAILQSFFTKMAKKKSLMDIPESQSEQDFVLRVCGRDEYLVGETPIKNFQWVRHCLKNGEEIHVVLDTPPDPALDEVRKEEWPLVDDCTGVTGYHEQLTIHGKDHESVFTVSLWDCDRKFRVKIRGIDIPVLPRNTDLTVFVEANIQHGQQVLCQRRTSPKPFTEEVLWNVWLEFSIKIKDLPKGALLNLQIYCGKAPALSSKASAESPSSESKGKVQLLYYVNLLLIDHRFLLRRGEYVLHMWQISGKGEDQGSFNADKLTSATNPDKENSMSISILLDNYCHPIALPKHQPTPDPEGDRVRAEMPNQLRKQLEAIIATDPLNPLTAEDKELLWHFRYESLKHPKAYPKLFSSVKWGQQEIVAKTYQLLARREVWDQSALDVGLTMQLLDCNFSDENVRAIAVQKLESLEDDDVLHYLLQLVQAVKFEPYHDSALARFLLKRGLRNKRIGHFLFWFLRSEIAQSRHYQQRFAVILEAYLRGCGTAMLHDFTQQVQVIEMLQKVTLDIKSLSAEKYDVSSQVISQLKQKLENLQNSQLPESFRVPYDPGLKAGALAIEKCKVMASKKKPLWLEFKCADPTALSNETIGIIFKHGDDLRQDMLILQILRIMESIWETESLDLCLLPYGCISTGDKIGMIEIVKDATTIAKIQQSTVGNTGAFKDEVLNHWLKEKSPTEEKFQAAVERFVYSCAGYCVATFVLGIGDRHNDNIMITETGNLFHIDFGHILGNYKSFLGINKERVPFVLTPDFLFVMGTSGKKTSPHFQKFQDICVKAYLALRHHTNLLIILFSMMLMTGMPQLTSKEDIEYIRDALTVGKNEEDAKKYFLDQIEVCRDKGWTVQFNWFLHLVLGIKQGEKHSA
Procedure: as §1

SAPK2a(h) = molecular target: T24, SAPK2a(h) (Homo sapiens, UniProt Q16539)
T24 construct: purchased Eurofins (Millipore) KinaseProfiler, inferred from the naming style
Procedure: as §1

EGFR(h) = EGFR(h) (Homo sapiens, UniProt P00533)
Procedure: as §1

Abl(h) = Abl(h) (Homo sapiens, UniProt P00519)
Procedure: as §1

In the case of `NC(=O)c1cc(Cn2cc(-c3c(-c4ccc(Cl)cc4)nc4c(F)cc(F)cn34)nn2)ccc1Cl` [Compound 11, 2-Chloro-5-((4-(2-(4-chlorophenyl)-6,8-difluoroimidazo[1,2-a]pyridin-3-yl)-1H-1,2,3-triazol-1-yl)methyl)-benzamide], the activity at 1 µM (LOK(h)) is reported as 94%, the activity at 1 µM (PRAK(h)) is reported as 81% and the activity at 1 µM (p70S6K(h)) is reported as 105%. For the same compound, the activity at 1 µM (Rse(h)) was 109%, the activity at 1 µM (MST1(h)) was 94% and the activity at 1 µM (ALK(h)) was 76%. The activity at 1 µM (CDK2/cyclinA(h)) was 106%, the activity at 1 µM (KDR(h)) was 86% and the activity at 1 µM (TAK1(h)) was 90%. For the same compound, the activity at 1 µM (MEK1(h)) was 94%, the activity at 1 µM (MAPKAP-K2(h)) was 101% and the activity at 1 µM [1] was 92%. It also gave an activity at 1 µM (Lyn(h)) of 88%, an activity at 1 µM (CDK1/cyclinB(h)) of 96% and an activity at 1 µM (ROCK-I(h)) of 97%. The activity at 1 µM (CHK1(h)) was 93%, the activity at 1 µM (EphA5(h)) was 106% and the activity at 1 µM (CDK6/cyclinD3(h)) was 92%. The activity at 1 µM (PKCθ(h)) was 90%, the activity at 1 µM (ASK1(h)) was 91% and the activity at 1 µM (IRAK4(h)) was 112%. It also gave an activity at 1 µM (IGF-1R(h)) of 99%, an activity at 1 µM (Aurora-A(h)) of 81% and an activity at 1 µM (eEF-2K(h)) of 112%. It also gave an activity at 1 µM (Rsk1(h)) of 129%, an activity at 1 µM [2] of 100% and an activity at 1 µM (EphB4(h)) of 97%. The activity at 1 µM (NEK2(h)) was 103%, the activity at 1 µM (CaMKI(h)) was 95% and the activity at 1 µM (mTOR(h)) was 96%. It also gave an activity at 1 µM (PKG1α(h)) of 85%, an activity at 1 µM (IKKα(h)) of 104% and an activity at 1 µM (Mnk2(h)) of 86%. The activity at 1 µM (AMPKα1(h)) was 102%, the activity at 1 µM (GSK3β(h)) was 99% and the activity at 1 µM (Plk3(h)) was 113%. The activity at 1 µM (PKBα(h)) was 100%, the activity at 1 µM (PI3 Kinase (p120g)(h)) was 102% and the activity at 1 µM (SAPK2a(h)) was 99%. The activity at 1 µM (EGFR(h)) was 103% and the activity at 1 µM (Abl(h)) was 104%.
